In patent US20230159931A1, “TARGETING THE PALMOTYLATION/DEPALMOTYLATION CYCLE TO TREAT INFLAMMATORY DISEASES” (CORNELL UNIVERSITY, priority 2020, published 2023):

Assays:
[1] = system: SMAD2 S-palmitoylation; experiment: SMAD2 S-palmitoylation in HEK293T cells treated with APT inhibitors (Alk14, in-gel fluorescence); format: cell-based, human; conditions: 10 μM APT inhibitors for 24 hours; HEK293T cells with HA-DHHC7 and Flag-SMAD2
Excerpt: FIGS. 7A-7G. APT2 is the depalmitylase of SMAD2 and C-terminal phosphorylation of SMAD2 is S-palmitoylation independent. (A) C-terminal phosphorylation (Ser465/Ser467) levels of Flag-SMAD2 (p-SMAD2(C2)) in HEK293T cells expressing HA-tagged mouse DHHC1-23. SMAD2 was pulled down with Flag beads and subjected to western blot analyses. (B) HEK293T cells were transfected with HA-tagged DHHC7 and Flag-SMAD2 WT and C41/81S mutant plasmid and treated with Alk14. The S-palmitoylation level of immunoprecipitated SMAD2 was visualized by in-gel fluorescence and the p-SMAD2(C2) level was detected by western blot analyses. […] The S-palmitoylation level of immunoprecipitated SMAD2 was visualized by in-gel fluorescence. […] The cells were labeled with Alk14 and the S-palmitoylation of SMAD2 was determined by in-gel fluorescence. […] The cells were labeled with Alk14 and the S-palmitoylation of SMAD2 was determined by in-gel fluorescence and the p-SMAD2(C2) level was detected by western blot analyses. […]
Cells were treated with 50 μM palmitic acid analogue Alkyne 14 (Alk14) for 5 h and the collected and lysed in 1% NP-40 lysis buffer (25 mM Tris-HCl pH 8.0, 150 mM NaCl, 10% glycerol, 1% Nonidet P-40) with protease inhibitor cocktail. […] The protein concentration was determined by Bradford assay (23200, Thermo Fisher). […]

[2] = system: NZB/W F1 female mice; experiment: Lupus nephrosis mouse model (proteinuria analysis); format: in vivo; conditions: 25 mg/Kg IP three times per week for 8 weeks, from 25-week age
Method: FIGS. 17A-17B. Lupus Nephrosis Mouse Model: APT2 inhibitor ML349 decreases protein concentration in the mouse urine. (A) Protein concentration in urine (all data points), (B) Protein concentration in urine (averaged, with error bars). NZB/W F1 female mice at 25-week were administered via IP injection with either vehicle solution (DMSO+PBS) or APT2 inhibitor ML349 at 25 mg/Kg three times per week for 8 weeks. After 4 weeks of treatment, mice were evaluated for lupus incidence weekly through proteinuria analysis by collecting the urines and measuring the protein concentrations in the urine.
NZB/W F1 female mice at 25-week were administered via IP injection with either vehicle solution (DMSO+PBS) or APT2 inhibitor ML349 at 25 mg/Kg three times per week for 8 weeks. After 4 weeks of treatment, mice were evaluated for lupus incidence weekly through proteinuria analysis by collecting the urines and measuring the protein concentrations in the urine. […] This was the first time that the inventors did this experiment and after the experiment began, the inventors noticed that at 25 weeks, the disease phenotype was already very severe. It is expected that if the ML349 treatment is begun earlier, the effect might be more obvious and significant.

Structure (SMILES): COc1ccc(N2CCN(C(=O)c3cc4c(s3)-c3ccccc3S(=O)(=O)C4)CC2)cc1 [ML349]
- SMAD2 S-palmitoylation signal [1]: significantly enhanced
- protein concentrations in the urine [2]: decrease
